Reference: PubChem BioAssay AID2775 (Southern Research Specialized Biocontainment Screening …, 2010)
The source made the active and inactive calls. No rule for the calls is given here.

Tests used:
[1] = SV40 cytopathic effect inhibition and cytotoxicity, SV40 T antigen inhibitor project, BSC cells, set 2 (AID 2775); settings: BSC cells, SV40 CPE inhibition and viability; for viability: BSC cell viability, at 100 µM, stronger effect = lower value
[2] = system: BSC cells, SV40 CPE inhibition and viability; assay: as above; settings: for EC50: measured here: SV40 T antigen ATPase

Row | SMILES | viability [1] | CC50 [2] | EC50 [2] | outcome [1]
1 | O=C(Cn1sc2ccccc2c1=O)NCc1ccccc1 | 22.9% | 58 µM (inactive) | 31.8 µM | –
2 | COc1cccc(NC(=O)Cn2sc3ccccc3c2=O)c1 | 52.5% | 57 µM (inactive) | 69.2 µM | –
3 | O=C(Cn1sc2ccccc2c1=O)Nc1ccc(Cl)cc1 | 83% | – | – | inactive
4 | O=C(Cn1sc2ccccc2c1=O)Nc1ccccc1 | 24% | 61 µM (inactive) | 35 µM | –
5 | COc1cccc(-n2nnnc2C(Cl)(Cl)c2nnnn2-c2cccc(OC)c2)c1 | 99.5% | – | – | inactive
6 | Cc1ccc(NC(=O)Cn2sc3ccccc3c2=O)cc1 | 22% | 57 µM (inactive) | 52.8 µM | –
7 | O=C(c1cccn1-c1ccccc1)c1cccn1-c1ccccc1 | 110% | – | – | inactive
8 | O=C(Cn1sc2ccccc2c1=O)Nc1cccc(C(F)(F)F)c1 | 87.5% | – | – | inactive
9 | COc1ccc(NC(=O)Cn2sc3ccccc3c2=O)cc1 | 24.9% | 73 µM (inactive) | 35 µM | –
10 | O=C(Cn1sc2ccccc2c1=O)Nc1ccc(F)cc1 | 30.5% | 59 µM (inactive) | 55.5 µM | –
